For assay [1], the target named is T1, baculovirus-expressed ALK (Homo sapiens, UniProt Q9UM73).
T1 construct: host or cells: baculovirus expression system
Kind of assay: ALK Kinase Assay (ELISA-type, time-resolved fluorescence). The assay is classed as biochemical. Summed up:
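Substrate coating: phospholipase C-γ, 10 μg/mL in TBS. Kinase step: 30 ng/ml ALK, 15 min, 37° C. Detection and analysis: Eu-N1 PT66 antibody, with IC50 fitted as a sigmoidal variable-slope dose-response curve.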

The target of assay [2] is T2, c-Met (cytoplasmic domain) (Homo sapiens, UniProt P08581).
T2 construct: 10 ng/mL c-Met (cytoplasmic domain, Invitrogen Corporation #PV3143); purchased Invitrogen Corporation PV3143
Nature of the assay: c-Met Kinase Assay (same methods as for ALK, with modifications). The assay is classed as biochemical. The procedure, abridged: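 This plate-based kinase format uses immobilized phospholipase C-γ as substrate, phosphorylated by c-Met cytoplasmic domain (10 ng/mL) at 37° C for 15 minutes.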

Where [3] appears, read: 1 μM ATP (Km level), 30 ng/ml ALK, 37° C., 15 minutes, read-out: ALK Activity (ALK kinase inhibition, IC50 class).
Where [4] appears, read: 1 μM ATP (Km level), 10 ng/mL c-Met, read-out: cMet Activity (c-Met kinase inhibition, IC50 class).
The mark [5] stands for this setting: 1 μM ATP (Km level), read-out: ALK Activity (ALK Kinase Inhibition, IC50).
The mark [6] stands for this setting: 1 μM ATP (Km level), read-out: cMet Activity (c-Met Kinase Inhibition, IC50).
Setting [7] is: ALK kinase inhibition, 1 μM ATP (Km level), read-out: ALK Activity.
Where [8] appears, read: c-Met kinase inhibition, 1 μM ATP (Km level), read-out: cMet Activity.
The mark [9] stands for this setting: ALK kinase inhibition, 1 μM ATP, read-out: ALK Activity.
[10] abbreviates: c-Met kinase inhibition, 1 μM ATP, read-out: cMet Activity.

Where two headings read alike, the source gives them in different places. Where only a bound is given, the exact number is not on record here.

T2 sequence (P08581 956-1390 limits assumed): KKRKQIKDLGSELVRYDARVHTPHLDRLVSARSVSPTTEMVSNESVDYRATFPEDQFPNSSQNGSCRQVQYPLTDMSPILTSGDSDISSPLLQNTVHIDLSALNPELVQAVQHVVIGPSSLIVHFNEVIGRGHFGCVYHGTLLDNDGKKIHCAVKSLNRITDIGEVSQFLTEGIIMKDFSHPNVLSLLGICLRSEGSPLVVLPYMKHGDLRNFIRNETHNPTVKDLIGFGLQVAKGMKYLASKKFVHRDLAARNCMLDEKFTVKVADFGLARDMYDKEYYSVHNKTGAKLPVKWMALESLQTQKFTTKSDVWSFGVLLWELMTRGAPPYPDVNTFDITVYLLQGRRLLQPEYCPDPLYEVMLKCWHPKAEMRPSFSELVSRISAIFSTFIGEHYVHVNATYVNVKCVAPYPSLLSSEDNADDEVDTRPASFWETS
T1 sequence (Q9UM73 19-1620): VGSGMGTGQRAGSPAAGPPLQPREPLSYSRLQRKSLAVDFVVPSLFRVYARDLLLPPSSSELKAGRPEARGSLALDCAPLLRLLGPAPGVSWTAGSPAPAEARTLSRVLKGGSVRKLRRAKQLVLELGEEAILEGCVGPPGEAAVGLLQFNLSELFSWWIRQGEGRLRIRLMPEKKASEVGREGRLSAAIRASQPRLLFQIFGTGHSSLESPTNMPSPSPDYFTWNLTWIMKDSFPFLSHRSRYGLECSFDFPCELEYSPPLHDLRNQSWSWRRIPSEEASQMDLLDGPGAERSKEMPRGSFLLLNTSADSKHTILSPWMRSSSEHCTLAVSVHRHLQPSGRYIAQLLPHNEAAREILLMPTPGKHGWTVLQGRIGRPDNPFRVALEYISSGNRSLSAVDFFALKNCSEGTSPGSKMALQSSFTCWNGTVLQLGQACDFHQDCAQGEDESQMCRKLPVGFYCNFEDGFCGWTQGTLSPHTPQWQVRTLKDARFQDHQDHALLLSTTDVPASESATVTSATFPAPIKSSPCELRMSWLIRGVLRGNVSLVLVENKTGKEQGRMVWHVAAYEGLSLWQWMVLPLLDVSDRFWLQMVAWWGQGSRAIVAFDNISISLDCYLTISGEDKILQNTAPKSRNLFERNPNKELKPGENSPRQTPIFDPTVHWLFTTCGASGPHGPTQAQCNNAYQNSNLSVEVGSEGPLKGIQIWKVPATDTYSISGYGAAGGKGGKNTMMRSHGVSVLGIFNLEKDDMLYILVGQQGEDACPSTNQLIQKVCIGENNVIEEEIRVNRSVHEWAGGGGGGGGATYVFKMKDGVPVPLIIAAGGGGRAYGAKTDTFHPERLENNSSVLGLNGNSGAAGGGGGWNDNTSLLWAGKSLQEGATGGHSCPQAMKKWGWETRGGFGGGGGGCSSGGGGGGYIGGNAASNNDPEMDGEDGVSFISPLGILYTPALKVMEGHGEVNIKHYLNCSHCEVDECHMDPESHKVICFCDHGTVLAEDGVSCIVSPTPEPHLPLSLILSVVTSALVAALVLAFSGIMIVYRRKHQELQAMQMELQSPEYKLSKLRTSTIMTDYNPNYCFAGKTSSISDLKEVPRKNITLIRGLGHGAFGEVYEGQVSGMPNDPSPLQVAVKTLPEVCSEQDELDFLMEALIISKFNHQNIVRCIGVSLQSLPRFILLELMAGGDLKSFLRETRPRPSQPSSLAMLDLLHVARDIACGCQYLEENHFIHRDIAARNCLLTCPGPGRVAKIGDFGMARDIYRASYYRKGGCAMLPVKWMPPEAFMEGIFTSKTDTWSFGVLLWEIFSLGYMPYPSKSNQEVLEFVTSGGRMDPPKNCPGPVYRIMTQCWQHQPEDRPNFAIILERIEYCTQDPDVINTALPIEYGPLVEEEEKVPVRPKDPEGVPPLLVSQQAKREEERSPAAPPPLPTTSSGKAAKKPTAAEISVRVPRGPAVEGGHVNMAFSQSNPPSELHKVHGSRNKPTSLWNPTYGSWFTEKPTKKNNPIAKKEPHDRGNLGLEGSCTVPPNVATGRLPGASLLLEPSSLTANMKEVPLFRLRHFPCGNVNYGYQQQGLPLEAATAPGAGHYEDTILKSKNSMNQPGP

`CCN1C(=O)CCC(C)(C)c2ccc(Nc3ncc(Cl)c(Nc4c(F)cccc4S(C)(=O)=O)n3)cc21` [Example 1259, 8-[5-Chloro-4-(2-fluoro-6-methanesulfonyl-phenylamino)-pyrimidin-2-ylamino]-1-ethyl-5,5-dimethyl-1,3,4,5-tetrahydro-1-benzazepin-2-one]: the IC50 in assay [1] (setting [3]) lay within 100 to 1000 nM; in assay [2] (setting [4]), 1000 to 10000 nM.

Consider `COc1cc2c(cc1Nc1ncc(Cl)c(N[C@@H]3CCCC[C@H]3NS(C)(=O)=O)n1)CCN(CCS(C)(=O)=O)CC2` [Example 1122, N-((1R,2R)-2-{5-Chloro-2-[3-(2-methanesulfonyl-ethyl)-8-methoxy-2,3,4,5-tetrahydro-1H-benzo[d]azepin-7-ylamino]-pyrimidin-4-ylamino}-cyclohexyl)-methanesulfonamide], for which the IC50 in assay [1] (setting [3]) was under 100 nM; in assay [2] (setting [4]), over 10000 nM.

For `COc1cc2c(cc1Nc1ncc(Cl)c(N[C@H]3[C@@H](C(N)=O)[C@@H]4C=C[C@H]3C4)n1)CCN(C(C)C)CC2` [Example 776, (1S,2S,3R,4R)-3-[5-Chloro-2-(3-isopropyl-8-methoxy-2,3,4,5-tetrahydro-1H-benzo[d]azepin-7-ylamino)-pyrimidin-4-ylamino]-bicyclo[2.2.1]hept-5-ene-2-carboxylic acid amide], the IC50 was under 100 nM in assay [1] (setting [5]) and over 10000 nM in assay [2] (setting [6]).

Consider `COc1c(Nc2ncc(Cl)c(Nc3ccccc3S(=O)(=O)N(C)C)n2)ccc2c1CCC(NCC(F)(F)F)CC2` (centres unmarked) [Example 684, 2-{5-Chloro-2-[1-methoxy-7-(2,2,2-trifluoro-ethylamino)-6,7,8,9-tetrahydro-5H-benzocyclohepten-2-ylamino]-pyrimidin-4-ylamino}-N,N-dimethyl-benzenesulfonamide], for which the IC50 in assay [1] (setting [5]) is under 100 nM; in assay [2] (setting [6]), over 10000 nM.

Regarding `COc1cc(N2CCOCC2)ccc1Nc1nc(Nc2ccc3c(c2)NC(=O)CCC3(C)C)ncc1Cl` [Example 1234, 8-[5-Chloro-4-(2-methoxy-4-morpholin-4-yl-phenylamino)-pyrimidin-2-ylamino]-5,5-dimethyl-1,3,4,5-tetrahydro-1-benzazepin-2-one], the IC50 in assay [1] (setting [3]) was under 100 nM; in assay [2] (setting [4]), 100 to 1000 nM.

`C#CCNC(=O)c1cccc(F)c1Nc1nc(Nc2ccc3c(c2)NC(=O)C(NC(=O)COC)CC3(C)C)ncc1Cl` (centres unmarked) [Example 1293, 2-{5-Chloro-2-[3-(2-methoxy-acetylamino)-5,5-dimethyl-2-oxo-2,3,4,5-tetrahydro-1H-1-benzazepin-8-ylamino]-pyrimidin-4-ylamino}-3-fluoro-N-prop-2-ynyl-benzamide]: the IC50 in assay [1] (setting [3]) and in assay [2] (setting [4]) was under 100 nM throughout.

`CN1CCN(c2ccc(Nc3nc(Nc4ccc5c(c4)C(C)(C)CCC(=O)N5)ncc3Cl)c(-n3cccn3)c2)CC1` [Example 628, 7-{5-Chloro-4-[4-(4-methyl-piperazin-1-yl)-2-pyrazol-1-yl-phenylamino]-pyrimidin-2-ylamino}-5,5-dimethyl-1,3,4,5-tetrahydro-benzo[b]azepin-2-one]: the IC50 in assay [1] (setting [5]) is under 100 nM; in assay [2] (setting [6]), 1000 to 10000 nM.

Regarding `NC(=O)[C@@H]1[C@H](Nc2nc(Nc3ccc4c(c3)CCC(O)CC4)ncc2Cl)[C@H]2C=C[C@@H]1C2` (stereo partly drawn) [Example 1017, (1S,2S,3R,4R)-3-[5-Chloro-2-(7-hydroxy-6,7,8,9-tetrahydro-5H-benzocyclohepten-2-ylamino)-pyrimidin-4-ylamino]-bicyclo[2.2.1]hept-5-ene-2-carboxylic acid amide], the IC50 in assay [1] (setting [3]) is under 100 nM; in assay [2] (setting [4]), 100 to 1000 nM.

For the molecule `CNC(=O)c1ccccc1Nc1nc(Nc2ccc3c(c2)OCCCO3)ncc1Cl` [Example 511], the IC50 in assay [1] (setting [5]) and in assay [2] (setting [6]) was under 100 nM each time.

In the case of `COCCN1CCc2cc(Nc3ncc(Cl)c(NC4C5C=CC(C5)C4C(N)=O)n3)c(OC)cc2CC1` (stereo not drawn) [Example 112, (2-exo,3-exo)-3-{5-Chloro-2-[8-methoxy-3-(2-methoxy-ethyl)-2,3,4,5-tetrahydro-1H-benzo[d]azepin-7-ylamino]-pyrimidin-4-ylamino}-bicyclo[2.2.1]hept-5-ene-2-carboxylic acid amide], the IC50 in assay [1] (setting [7]) is under 100 nM; in assay [2] (setting [8]), over 10000 nM.

With `Cc1ccc(-c2ccccc2Nc2nc(Nc3ccc4c(c3)CCCC(=O)N4C)ncc2Cl)nc1` [Example 1004, 7-{5-Chloro-4-[2-(5-methyl-pyridin-2-yl)-phenylamino]-pyrimidin-2-ylamino}-1-methyl-1,3,4,5-tetrahydro-benzo[b]azepin-2-one], the IC50 in assay [1] (setting [5]) and in assay [2] (setting [6]) was 1000 to 10000 nM in each case.

As to `COc1cc2c(cc1Nc1ncc(Cl)c(N[C@H]3[C@@H](C(N)=O)[C@@H]4C=C[C@H]3C4)n1)CCN(Cc1ncco1)CC2` [Example 1179, (1S,2S,3R,4R)-3-[5-Chloro-2-(8-methoxy-3-oxazol-2-ylmethyl-2,3,4,5-tetrahydro-1H-benzo[d]azepin-7-ylamino)-pyrimidin-4-ylamino]-bicyclo[2.2.1]hept-5-ene-2-carboxylic acid amide], the IC50 was under 100 nM in assay [1] (setting [3]) and over 10000 nM in assay [2] (setting [4]).

For `CNS(=O)(=O)c1ccccc1Nc1nc(Nc2ccc3c(c2)CCCC(=O)N3CC(=O)OC)ncc1Cl` [Example 8, {7-[5-Chloro-4-(2-methylsulfamoyl-phenylamino)-pyrimidin-2-ylamino]-2-oxo-2,3,4,5-tetrahydro-benzo[b]azepin-1-yl}-acetic acid methyl ester], the IC50 in assay [1] (setting [7]) and in assay [2] (setting [8]) was under 100 nM throughout.

In the case of `CCNc1nnc(-c2ccccc2Nc2nc(Nc3ccc4c(c3)CCOC(=O)N4C)ncc2Cl)o1` [Example 1783, 2-{5-Chloro-4-[2-(5-ethylamino-[1,3,4]oxadiazol-2-yl)-phenylamino]-pyrimidin-2-ylamino}-5-methyl-8,9-dihydro-5H-7-oxa-5-aza-benzocyclohepten-6-one], the IC50 lay within 1000 to 10000 nM in assay [1] (setting [9]) and 100 to 1000 nM in assay [2] (setting [10]).

For `COc1ccc2c(c1Nc1ncc(Cl)c(Nc3ccccc3S(=O)(=O)N(C)C)n1)CCC(NCC(F)F)CC2` (centres unmarked) [Example 1077, 2-{5-Chloro-2-[7-(2,2-difluoro-ethylamino)-2-methoxy-6,7,8,9-tetrahydro-5H-benzocyclohepten-1-ylamino]-pyrimidin-4-ylamino}-N,N-dimethyl-benzenesulfonamide], the IC50 in assay [1] (setting [3]) was 100 to 1000 nM; in assay [2] (setting [4]), over 10000 nM.

In the case of `CNC(=O)C1C2C=CC(C2)C1Nc1nc(Nc2ccc3c(c2)CCC(O)CC3)ncc1Cl` (stereo not drawn) [Example 625, (2-exo-3-exo)-3-[5-Chloro-2-(7-hydroxy-6,7,8,9-tetrahydro-5H-benzocyclohepten-2-ylamino)-pyrimidin-4-ylamino]-bicyclo[2.2.1]hept-5-ene-2-carboxylic acid methylamide], the results for the IC50 in assay [1] (setting [5]) and in assay [2] (setting [6]) were under 100 nM and 100 to 1000 nM, respectively.

For `CCN1CCc2ccc(Nc3ncc(C#N)c(Nc4ccccc4C(=O)NC)n3)cc2CC1` [Example 194, 2-[2-(3-Ethyl-2,3,4,5-tetrahydro-1H-benzo[d]azepin-7-ylamino)-5-cyano-pyrimidin-4-ylamino]-N-methyl-benzamide], the IC50 was under 100 nM in assay [1] (setting [7]) and 100 to 1000 nM in assay [2] (setting [8]).

For the molecule `COCC(COC)N1CCc2cc(Nc3ncc(Cl)c(Nc4ccccc4S(=O)(=O)N(C)C)n3)c(OC)cc2CC1` [Example 818, 2-{5-Chloro-2-[8-methoxy-3-(2-methoxy-1-methoxymethyl-ethyl)-2,3,4,5-tetrahydro-1H-benzo[d]azepin-7-ylamino]-pyrimidin-4-ylamino}-N,N-dimethyl-benzenesulfonamide], the results for the IC50 in assay [1] (setting [5]) and in assay [2] (setting [6]) were under 100 nM and over 10000 nM, respectively.

Consider `COc1cc2c(cc1Nc1ncc(Cl)c(Nc3ccc(N(C)C)cc3OC)n1)CCN(CCN1CCOCC1)CC2` [Example 1537, 5-Chloro-N(4)-(4-dimethylamino-2-methoxy-phenyl)-N(2)-[8-methoxy-3-(2-morpholin-4-yl-ethyl)-2,3,4,5-tetrahydro-1H-3-benzazepin-7-yl]-pyrimidine-2,4-diamine], for which the IC50 in assay [1] (setting [9]) was under 100 nM; in assay [2] (setting [10]) it was over 10000 nM.

In the case of `CC1(C)CCC(=O)Nc2ccc(Nc3ncc(Cl)c(Nc4ccccc4-c4cc(=O)[nH]c(=O)[nH]4)n3)cc21` [Example 988, 6-{2-[5-Chloro-2-(5,5-dimethyl-2-oxo-2,3,4,5-tetrahydro-1H-benzo[b]azepin-7-ylamino)-pyrimidin-4-ylamino]-phenyl}-1H-pyrimidine-2,4-dione], the IC50 in assay [1] (setting [5]) was 1000 to 10000 nM; in assay [2] (setting [6]), over 10000 nM.

For `CNC(=O)c1ccccc1Nc1nc(Nc2cccc3c2CN(C(C)=O)CCN3)ncc1Cl` [Example 236, 2-[2-(4-Acetyl-2,3,4,5-tetrahydro-1H-benzo[e][1,4]diazepin-6-ylamino)-5-chloro-pyrimidin-4-ylamino]-N-methyl-benzamide], the IC50 fell in the range of 100 to 1000 nM in assay [1] (setting [7]) and 1000 to 10000 nM in assay [2] (setting [8]).

Consider `CC(C)S(=O)(=O)c1cccc(F)c1Nc1nc(Nc2ccc3c(c2)C(C)(C)CCC(=O)N3)ncc1Cl` [Example 1254, 7-{5-Chloro-4-[2-fluoro-6-(propane-2-sulfonyl)-phenylamino]-pyrimidin-2-ylamino}-5,5-dimethyl-1,3,4,5-tetrahydro-1-benzazepin-2-one], for which the values for the IC50 in assay [1] (setting [3]) and in assay [2] (setting [4]) were under 100 nM and 1000 to 10000 nM, respectively.

Source of the values: patent US8148391B2 (Cephalon, Inc., priority 2006, dated 2012).
